# Reference: patent US20220356174A1, “PYRIDIN-2-ONE COMPOUNDS USEFUL AS SMARCA2 ANTAGONISTS” (Epizyme, Inc., priority 2018, published 2022)
# System: A549 cells
# Experiment: High-throughput proliferation (HTP) assay for A549 cells (CellTiter-Glo, 7 days)
# Type: cell-based
# Settings: Homo sapiens, 168 h, read-out: A549 SMARCA2 IC50
# Experimental: Thawing vials: A549 cells (ATCC #CCL-185™) were thawed from a cryovial containing approximately 1.6×10^6 cells frozen in 70% F12K medium, 20% HI-FBS and 10% DMSO. Cells were thawed by submerging the bottom half of the vial in a 37° C. water bath and gently flicked until almost thawed. The cells were transferred into a 15 mL conical tube containing 9 mL of F12K medium+10% HI-FBS and then centrifuged at 200×g for 4 min before drawing off the media without disturbing the cell pellet in order to remove the DMSO. The cells were resuspended again in 15 mL of F12K fresh complete media+10% HI-FBS and grown up in a T75 flask at 37° C. with 5% CO2 Incubator. Viability was measured to obtain baseline.
# Frozen stock vials preparation: The cell culture was transferred to a 50 mL conical tube, spun down to remove medium, and resuspended at 1-2×10^6 cells/mL in complete medium containing 10% DMSO. The culture was then stored for 24 hours at −80 degree C., (with the initial rate of freezing is −1 degree C. per minute in a freezing container), then transferred and stored in liquid nitrogen.
# (§1) Routine subculture: Sub-confluent cultures (70-80%) were split every 4 days, seeding out at 1-2×10^6 cells/75 cm^2.
# Day 0: Assay ready plates were prepared by dispensing 50 nL of compound or DMSO in the appropriate wells of 384-well white CulturPlates using Echo550. Using the Multiflo, A549 cells were plated at 50 μL/well in F12K complete media+10% HI-FBS+1% pen/strep at cell density determined [1,250 cells/mL (62.5 cells/well)] from growth curve.
# Treated cells were incubated at 37° C., 5% CO2, relative humidity >90% for 7 days. CellTiter-Glo (CTG) ATP detection reagent was prepared according to manufacturer's specifications. Cell assay plates were removed from the incubator and brought to room temperature (RT). Using the MultiDrop liquid handler, 30 μL of CTG were added per well. Plates were placed on the multidrop dispenser shake for 5 seconds at room temperature (RT). Plates were incubated for 30 minutes in the dark at RT before measuring luminescence using the Envison2104.
# Data analysis: Using the DMSO control wells as the 0% inhibition (high signal) control and the 10 μM Doxorubicin control wells as the 100% inhibition (low signal) control, percent inhibition EC50s (inflection point) and IC50 s were calculated for the compound dose responses.
row,IC50,SMILES
1,> 10000 nM,CC(N)CC#Cc1cc(C(=O)Nc2cc(F)c(=O)n(CC(F)F)c2)sc1Cl (stereo not shown) [Compound 139d]
2,3980 nM,CN(C)CCn1cc(C#Cc2cc(C(=O)Nc3cc(F)c(=O)n(CC(F)F)c3)sc2Cl)cn1 [Compound 123c]
3,2370 nM,CC#Cc1cc(C(=O)Nc2cc(F)c(=O)n(CC(F)F)c2)sc1Cl [Compound 85c]
4,2330 nM,Cc1sc(C(=O)Nc2cc(F)c(=O)n(CC(F)F)c2)cc1C#CC1COC1 [Compound 92c]
5,1730 nM,CNC(=O)c1cccc(C#Cc2cc(C(=O)Nc3cc(F)c(=O)n(CC(F)F)c3)sc2Cl)c1 [Compound 86c]
6,4250 nM,CN(C)Cc1ncc(C#Cc2cc(C(=O)Nc3cc(F)c(=O)n(CC(F)F)c3)sc2Cl)n1C [Compound 148c]
7,2170 nM,O=C(Nc1cc(F)c(=O)n(CC(F)F)c1)c1cc(C#C[C@H]2CCC[C@H](O)C2)c(Cl)s1 [Compound 129d]
8,> 10000 nM,CC(C)(F)c1sc(C(=O)Nc2cc(F)c(=O)n(CC(F)F)c2)cc1C#N [Compound 84d]

# Continued, compound first:
row,SMILES,IC50
1,Cn1cc(C#Cc2cc(C(=O)Nc3cc(F)c(=O)n(CC(F)F)c3)sc2Cl)ccc1=O [Compound 60d],3650 nM
2,Cc1cnc(C#Cc2cc(C(=O)Nc3cc(F)c(=O)n(CC(F)F)c3)sc2Cl)o1 [Compound 71c],1950 nM
3,O=C(Nc1cc(F)c(=O)n(CC(F)F)c1)c1cc(C#Cc2ccccn2)c(Cl)s1 [Compound 81c],2010 nM
4,Cc1cnc(C#Cc2cc(C(=O)Nc3cc(F)c(=O)n(CC(F)F)c3)sc2Cl)s1 [Compound 70c],6250 nM
5,CC(=O)Nc1cccc(C#Cc2cc(C(=O)Nc3cc(F)c(=O)n(CC(F)F)c3)sc2Cl)c1 [Compound 75c],1780 nM

# System: H358 cells
# Experiment: High-throughput proliferation (HTP) assay for H358 cells (CellTiter-Glo, 7 days)
# Type: cell-based
# Settings: Homo sapiens, NCI-H358, 168 h, read-out: H358 SMARCA2 IC50
# Experimental: Thawing vials: H358 cells (ATCC #CRL-5807™) were thawed from a cryovial containing approximately 1.6×10^6 cells frozen in 70% RPMI 1640 medium, 20% HI-FBS and 10% DMSO. Cells were thawed by submerging the bottom half of the vial in a 37° C. water bath and gently flicked until almost thawed. The cells were removed and transferred into a 15 mL conical tube containing 9 mL RPMI 1640 medium+10% HI-FBS and then centrifuged 200×g for 4 min before drawing off the media without disturbing the cell pellet to remove the DMSO. The cells were resuspended again in 15 mL of RPMI 1640 fresh complete media+10% HI-FBS and grown up in a T75 flask at 37° C. with 5% CO2 Incubator. Viability was measured to obtain baseline.
# Preparing frozen stock vials: Cell density was counted in a stock flask. The culture was transferred to a 50 mL conical tube and spun down to remove medium, and then resuspend at 1-2×10^6 cells/mL in complete medium containing 10% DMSO and transferred to a 1 mL per vial.
# as §1
# Day 0: Assay ready plates were prepared by dispensing 50 nL of compound stock or DMSO in the appropriate wells of 384-well white CulturPlates using Echo550. Using the Multiflo, H358 cells at 50 μL/well were plated in RPMI 1640 complete media+10% HI-FBS+1% pen/strep at cell density determined [20,000 cells/mL (1,000 cells/well)] from growth curve. Treated cells were inclubated at 37° C., 5% CO2, relative humidity >90% for 7 days. CellTiter-Glo (CTG) ATP detection reagent was prepared according to manufacturer's specifications. Cell assay plates were removed from incubator and bring to room temperature (RT).
# Using the MultiDrop liquid handler, 30 μL of CTG were added per well. Plates were placed on the multidrop dispenser shake for 5 seconds at RT. Plates were incubated for 30 minutes in the dark at RT before measuring luminescence using the Envison2104.
# Data analysis: Using the DMSO control wells as the 0% inhibition (high signal) control and the 10 uM Doxorubicin control wells as the 100% inhibition (low signal) control, percent inhibition EC50s (inflection point) and IC50s were calculated for the compound dose responses.
row,IC50,SMILES
1,> 10000 nM,CC(N)CC#Cc1cc(C(=O)Nc2cc(F)c(=O)n(CC(F)F)c2)sc1Cl (stereo not shown) [Compound 139d]
2,> 10000 nM,CN(C)CCn1cc(C#Cc2cc(C(=O)Nc3cc(F)c(=O)n(CC(F)F)c3)sc2Cl)cn1 [Compound 123c]
3,> 10000 nM,CC#Cc1cc(C(=O)Nc2cc(F)c(=O)n(CC(F)F)c2)sc1Cl [Compound 85c]
4,> 10000 nM,Cc1sc(C(=O)Nc2cc(F)c(=O)n(CC(F)F)c2)cc1C#CC1COC1 [Compound 92c]
5,> 10000 nM,CNC(=O)c1cccc(C#Cc2cc(C(=O)Nc3cc(F)c(=O)n(CC(F)F)c3)sc2Cl)c1 [Compound 86c]
6,> 10000 nM,CN(C)Cc1ncc(C#Cc2cc(C(=O)Nc3cc(F)c(=O)n(CC(F)F)c3)sc2Cl)n1C [Compound 148c]
7,> 10000 nM,O=C(Nc1cc(F)c(=O)n(CC(F)F)c1)c1cc(C#C[C@H]2CCC[C@H](O)C2)c(Cl)s1 [Compound 129d]
8,> 10000 nM,CC(C)(F)c1sc(C(=O)Nc2cc(F)c(=O)n(CC(F)F)c2)cc1C#N [Compound 84d]

# The next lines start with the compound.
row,SMILES,IC50
1,Cn1cc(C#Cc2cc(C(=O)Nc3cc(F)c(=O)n(CC(F)F)c3)sc2Cl)ccc1=O [Compound 60d],> 10000 nM
2,Cc1cnc(C#Cc2cc(C(=O)Nc3cc(F)c(=O)n(CC(F)F)c3)sc2Cl)o1 [Compound 71c],> 10000 nM
3,O=C(Nc1cc(F)c(=O)n(CC(F)F)c1)c1cc(C#Cc2ccccn2)c(Cl)s1 [Compound 81c],> 10000 nM
4,Cc1cnc(C#Cc2cc(C(=O)Nc3cc(F)c(=O)n(CC(F)F)c3)sc2Cl)s1 [Compound 70c],9160 nM
5,CC(=O)Nc1cccc(C#Cc2cc(C(=O)Nc3cc(F)c(=O)n(CC(F)F)c3)sc2Cl)c1 [Compound 75c],> 10000 nM

# Molecular target: FL-SMARCA4 (Homo sapiens, UniProt P51532)
# Sequence (P51532 whole entry): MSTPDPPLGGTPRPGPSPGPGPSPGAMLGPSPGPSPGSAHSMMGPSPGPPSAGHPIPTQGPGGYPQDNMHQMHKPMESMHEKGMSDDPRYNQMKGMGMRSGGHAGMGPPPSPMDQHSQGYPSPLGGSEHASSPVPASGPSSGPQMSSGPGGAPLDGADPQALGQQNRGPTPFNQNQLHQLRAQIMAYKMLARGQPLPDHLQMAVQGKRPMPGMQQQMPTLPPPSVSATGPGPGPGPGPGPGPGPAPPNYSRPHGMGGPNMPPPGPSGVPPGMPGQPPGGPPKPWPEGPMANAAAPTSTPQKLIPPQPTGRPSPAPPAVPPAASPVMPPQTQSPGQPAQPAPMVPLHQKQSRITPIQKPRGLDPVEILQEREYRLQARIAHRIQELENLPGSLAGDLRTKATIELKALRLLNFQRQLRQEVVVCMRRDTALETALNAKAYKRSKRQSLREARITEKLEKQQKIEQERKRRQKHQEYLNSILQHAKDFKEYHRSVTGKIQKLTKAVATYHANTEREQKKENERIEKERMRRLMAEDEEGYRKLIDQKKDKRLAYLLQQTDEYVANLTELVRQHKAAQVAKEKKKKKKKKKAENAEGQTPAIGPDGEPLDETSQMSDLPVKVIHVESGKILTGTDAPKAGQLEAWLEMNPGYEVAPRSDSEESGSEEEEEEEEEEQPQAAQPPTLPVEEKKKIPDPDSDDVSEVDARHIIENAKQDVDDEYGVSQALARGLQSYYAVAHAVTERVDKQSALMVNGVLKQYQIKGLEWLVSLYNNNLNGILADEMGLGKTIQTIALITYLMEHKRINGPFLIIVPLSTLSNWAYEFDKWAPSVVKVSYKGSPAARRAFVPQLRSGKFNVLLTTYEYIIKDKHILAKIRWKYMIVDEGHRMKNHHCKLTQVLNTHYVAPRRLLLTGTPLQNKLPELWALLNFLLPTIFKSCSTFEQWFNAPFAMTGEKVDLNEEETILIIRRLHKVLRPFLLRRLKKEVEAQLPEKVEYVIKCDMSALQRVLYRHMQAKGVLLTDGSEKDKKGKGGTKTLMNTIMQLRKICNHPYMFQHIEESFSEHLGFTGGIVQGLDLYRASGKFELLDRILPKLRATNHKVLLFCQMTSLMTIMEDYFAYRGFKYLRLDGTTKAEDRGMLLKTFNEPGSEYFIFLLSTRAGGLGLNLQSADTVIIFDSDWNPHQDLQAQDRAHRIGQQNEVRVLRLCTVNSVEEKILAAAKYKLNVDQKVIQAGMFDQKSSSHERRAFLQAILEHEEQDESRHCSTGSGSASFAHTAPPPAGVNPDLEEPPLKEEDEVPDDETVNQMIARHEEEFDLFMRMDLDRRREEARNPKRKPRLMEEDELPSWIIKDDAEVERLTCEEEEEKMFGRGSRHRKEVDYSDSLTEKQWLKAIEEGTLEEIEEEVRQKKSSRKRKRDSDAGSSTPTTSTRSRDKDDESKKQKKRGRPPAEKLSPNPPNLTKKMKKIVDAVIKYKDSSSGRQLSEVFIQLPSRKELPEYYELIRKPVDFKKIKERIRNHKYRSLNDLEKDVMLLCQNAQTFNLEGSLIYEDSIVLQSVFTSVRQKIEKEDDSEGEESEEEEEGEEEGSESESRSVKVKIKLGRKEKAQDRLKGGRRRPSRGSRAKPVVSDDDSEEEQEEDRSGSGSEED
# Experiment: SMARCA4 ATPase activity assay (ADP-Glo, chicken mononucleosome substrate)
# Settings: FL-SMARCA4 IC50
row,SMILES,IC50
1,Cn1cc(C#Cc2cc(C(=O)Nc3cc(F)c(=O)n(CC(F)F)c3)sc2Cl)ccc1=O [Compound 60d],36.3 nM
2,CC(N)CC#Cc1cc(C(=O)Nc2cc(F)c(=O)n(CC(F)F)c2)sc1Cl (stereo not shown) [Compound 139d],6700 nM
3,O=C(Nc1cc(F)c(=O)n(CC(F)F)c1)c1cc(C#C[C@H]2CCC[C@H](O)C2)c(Cl)s1 [Compound 129d],161 nM
4,CC(C)(F)c1sc(C(=O)Nc2cc(F)c(=O)n(CC(F)F)c2)cc1C#N [Compound 84d],> 50000 nM

# Same assay, conditions: FL-SMARCA4 IC>50, Table 3c.2; ATPase assay, enzyme 5 nM, ATP 250 uM, chicken mononucleosome 10 nM, 30 min preincubation
row,IC50,SMILES
1,1070 nM,CN(C)CCn1cc(C#Cc2cc(C(=O)Nc3cc(F)c(=O)n(CC(F)F)c3)sc2Cl)cn1 [Compound 123c]
2,233 nM,CC#Cc1cc(C(=O)Nc2cc(F)c(=O)n(CC(F)F)c2)sc1Cl [Compound 85c]
3,346 nM,Cc1sc(C(=O)Nc2cc(F)c(=O)n(CC(F)F)c2)cc1C#CC1COC1 [Compound 92c]
4,45.1 nM,CNC(=O)c1cccc(C#Cc2cc(C(=O)Nc3cc(F)c(=O)n(CC(F)F)c3)sc2Cl)c1 [Compound 86c]
5,432 nM,CN(C)Cc1ncc(C#Cc2cc(C(=O)Nc3cc(F)c(=O)n(CC(F)F)c3)sc2Cl)n1C [Compound 148c]

# Continued, compound first:
row,SMILES,IC50
1,Cc1cnc(C#Cc2cc(C(=O)Nc3cc(F)c(=O)n(CC(F)F)c3)sc2Cl)o1 [Compound 71c],304 nM
2,O=C(Nc1cc(F)c(=O)n(CC(F)F)c1)c1cc(C#Cc2ccccn2)c(Cl)s1 [Compound 81c],198 nM
3,Cc1cnc(C#Cc2cc(C(=O)Nc3cc(F)c(=O)n(CC(F)F)c3)sc2Cl)s1 [Compound 70c],385 nM
4,CC(=O)Nc1cccc(C#Cc2cc(C(=O)Nc3cc(F)c(=O)n(CC(F)F)c3)sc2Cl)c1 [Compound 75c],54.5 nM

# Molecular target: T1, FL-SMARCA2 (full-length human SMARCA2 isoform 1) (Homo sapiens, UniProt P51531)
# T1 construct: FLAG tag (YKDDDDK) (C); made in house; host or cells: Sf21 insect cells (baculovirus, pFastBacI)
# T1 sequence (P51531 with tags, fused parts or gaps): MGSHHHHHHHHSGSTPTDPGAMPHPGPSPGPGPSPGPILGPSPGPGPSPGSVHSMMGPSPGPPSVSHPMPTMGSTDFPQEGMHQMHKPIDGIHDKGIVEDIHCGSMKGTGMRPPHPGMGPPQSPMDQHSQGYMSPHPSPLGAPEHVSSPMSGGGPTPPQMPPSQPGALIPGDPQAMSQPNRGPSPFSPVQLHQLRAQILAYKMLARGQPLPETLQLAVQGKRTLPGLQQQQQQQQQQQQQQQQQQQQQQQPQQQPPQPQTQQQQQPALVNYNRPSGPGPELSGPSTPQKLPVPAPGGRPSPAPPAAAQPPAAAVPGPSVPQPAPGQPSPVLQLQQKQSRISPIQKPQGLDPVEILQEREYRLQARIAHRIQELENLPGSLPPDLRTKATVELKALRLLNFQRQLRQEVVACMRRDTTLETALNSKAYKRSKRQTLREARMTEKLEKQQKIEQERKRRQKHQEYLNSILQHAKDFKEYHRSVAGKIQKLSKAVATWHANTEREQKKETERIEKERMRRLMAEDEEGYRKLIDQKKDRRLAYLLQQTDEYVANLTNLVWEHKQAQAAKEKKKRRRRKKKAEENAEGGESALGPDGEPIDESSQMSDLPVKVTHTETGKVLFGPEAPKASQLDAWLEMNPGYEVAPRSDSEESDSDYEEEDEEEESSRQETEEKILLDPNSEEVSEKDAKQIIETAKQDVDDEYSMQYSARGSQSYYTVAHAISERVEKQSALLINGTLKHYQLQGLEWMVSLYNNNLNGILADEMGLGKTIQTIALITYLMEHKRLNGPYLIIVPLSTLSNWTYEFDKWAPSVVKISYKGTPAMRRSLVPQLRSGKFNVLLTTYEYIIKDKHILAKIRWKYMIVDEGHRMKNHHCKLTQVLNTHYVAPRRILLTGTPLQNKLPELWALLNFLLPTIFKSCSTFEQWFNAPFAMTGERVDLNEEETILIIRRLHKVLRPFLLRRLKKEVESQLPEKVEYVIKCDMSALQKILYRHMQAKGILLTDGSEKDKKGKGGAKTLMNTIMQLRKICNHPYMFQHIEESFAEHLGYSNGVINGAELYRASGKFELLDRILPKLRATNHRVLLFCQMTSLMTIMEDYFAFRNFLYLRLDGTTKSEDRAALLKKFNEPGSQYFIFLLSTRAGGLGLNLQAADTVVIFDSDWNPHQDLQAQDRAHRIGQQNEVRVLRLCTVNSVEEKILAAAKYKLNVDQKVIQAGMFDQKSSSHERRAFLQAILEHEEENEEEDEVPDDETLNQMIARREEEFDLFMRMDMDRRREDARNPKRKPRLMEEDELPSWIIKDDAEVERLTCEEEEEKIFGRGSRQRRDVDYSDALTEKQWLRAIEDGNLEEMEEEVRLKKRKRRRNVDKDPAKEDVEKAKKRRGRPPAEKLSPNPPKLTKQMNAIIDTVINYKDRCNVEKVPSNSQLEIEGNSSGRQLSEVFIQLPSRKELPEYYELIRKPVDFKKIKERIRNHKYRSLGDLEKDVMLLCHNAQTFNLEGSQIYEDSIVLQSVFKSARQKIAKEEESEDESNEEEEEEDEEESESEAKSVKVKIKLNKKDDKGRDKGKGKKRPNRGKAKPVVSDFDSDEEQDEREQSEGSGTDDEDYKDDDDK
# Experiment: SMARCA2 ATPase activity assay (ADP-Glo, chicken mononucleosome substrate)
# Type: biochemical
# Settings: Table 3c.1; ATPase assay, enzyme 5 nM, ATP 250 uM, chicken mononucleosome 10 nM, 30 min preincubation
row,IC50,SMILES
1,471 nM,CN(C)CCn1cc(C#Cc2cc(C(=O)Nc3cc(F)c(=O)n(CC(F)F)c3)sc2Cl)cn1 [Compound 123c]
2,81.1 nM,CC#Cc1cc(C(=O)Nc2cc(F)c(=O)n(CC(F)F)c2)sc1Cl [Compound 85c]
3,120 nM,Cc1sc(C(=O)Nc2cc(F)c(=O)n(CC(F)F)c2)cc1C#CC1COC1 [Compound 92c]
4,17.2 nM,CNC(=O)c1cccc(C#Cc2cc(C(=O)Nc3cc(F)c(=O)n(CC(F)F)c3)sc2Cl)c1 [Compound 86c]
5,146 nM,CN(C)Cc1ncc(C#Cc2cc(C(=O)Nc3cc(F)c(=O)n(CC(F)F)c3)sc2Cl)n1C [Compound 148c]

# Further lines, the compound ahead of its results:
row,SMILES,IC50
1,Cc1cnc(C#Cc2cc(C(=O)Nc3cc(F)c(=O)n(CC(F)F)c3)sc2Cl)o1 [Compound 71c],92 nM
2,O=C(Nc1cc(F)c(=O)n(CC(F)F)c1)c1cc(C#Cc2ccccn2)c(Cl)s1 [Compound 81c],79.8 nM
3,Cc1cnc(C#Cc2cc(C(=O)Nc3cc(F)c(=O)n(CC(F)F)c3)sc2Cl)s1 [Compound 70c],260 nM
4,CC(=O)Nc1cccc(C#Cc2cc(C(=O)Nc3cc(F)c(=O)n(CC(F)F)c3)sc2Cl)c1 [Compound 75c],20 nM

# Same assay, conditions: Table 3d.1; ATPase assay, enzyme 5 nM, ATP 250 uM, chicken mononucleosome 10 nM, 30 min preincubation; read-out: FL-SMARCA2 IC>50
row,SMILES,IC50
1,Cn1cc(C#Cc2cc(C(=O)Nc3cc(F)c(=O)n(CC(F)F)c3)sc2Cl)ccc1=O [Compound 60d],18 nM
2,CC(N)CC#Cc1cc(C(=O)Nc2cc(F)c(=O)n(CC(F)F)c2)sc1Cl (stereo not shown) [Compound 139d],3100 nM
3,O=C(Nc1cc(F)c(=O)n(CC(F)F)c1)c1cc(C#C[C@H]2CCC[C@H](O)C2)c(Cl)s1 [Compound 129d],58.4 nM
4,CC(C)(F)c1sc(C(=O)Nc2cc(F)c(=O)n(CC(F)F)c2)cc1C#N [Compound 84d],8580 nM
